This note sets out measurements from PMC10454575, “A Novel Aniline Derivative from Peganum harmala L. Promoted Apoptosis via Activating PI3K/AKT/mTOR-Mediated Autophagy in Non-Small Cell Lung Cancer Cells” (International Journal of Molecular Sciences, 2023).

SMILES strings stand for the structures.

The target of the assay is T1, CD133 (Homo sapiens, UniProt O43490).
T1 construct: gene PROM1
T1 sequence (O43490 20-865): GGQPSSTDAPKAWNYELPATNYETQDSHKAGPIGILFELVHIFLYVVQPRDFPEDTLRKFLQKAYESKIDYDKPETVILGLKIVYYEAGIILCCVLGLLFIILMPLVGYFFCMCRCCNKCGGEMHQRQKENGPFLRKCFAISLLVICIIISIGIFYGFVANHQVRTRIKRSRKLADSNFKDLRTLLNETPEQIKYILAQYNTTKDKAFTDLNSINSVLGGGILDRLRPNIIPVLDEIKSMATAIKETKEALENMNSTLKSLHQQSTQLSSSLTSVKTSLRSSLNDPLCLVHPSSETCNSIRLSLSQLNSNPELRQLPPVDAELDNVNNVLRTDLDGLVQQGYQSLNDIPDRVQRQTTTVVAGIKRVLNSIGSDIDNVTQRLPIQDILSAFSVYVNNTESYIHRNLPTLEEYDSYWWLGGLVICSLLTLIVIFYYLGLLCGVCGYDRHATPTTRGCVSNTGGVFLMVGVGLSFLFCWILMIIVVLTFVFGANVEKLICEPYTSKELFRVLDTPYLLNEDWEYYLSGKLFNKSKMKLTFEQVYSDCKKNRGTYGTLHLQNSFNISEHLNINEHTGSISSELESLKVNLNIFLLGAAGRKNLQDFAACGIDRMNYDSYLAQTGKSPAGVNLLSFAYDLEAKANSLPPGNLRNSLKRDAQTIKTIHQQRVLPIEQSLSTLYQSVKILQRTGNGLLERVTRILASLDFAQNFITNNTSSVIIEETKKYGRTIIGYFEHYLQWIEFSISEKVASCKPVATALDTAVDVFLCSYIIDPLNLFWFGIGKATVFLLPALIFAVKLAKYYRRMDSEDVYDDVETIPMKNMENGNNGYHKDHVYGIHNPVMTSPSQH
Nature of the assay: surface plasmon resonance (SPR), single-site fit, […] PA. It counts as binding. A general note: SPR reads the build-up and loss of mass on a sensor chip optically.

Usually Kd stands for the constant that tells how readily two partners part at equilibrium. Read a low Kd as higher affinity. `COc1ccc(C(=O)CCNC(C)=O)c(N)c1` [PA, pegaharoline A] showed a Kd of 7.25 µM.
